Results reported in US20260262643A1, “HERBICIDAL BENZOXAZINES” (FMC CORPORATION, priority 2022, published 2026).
Where two headings read alike, the source gives them in different places.

Assays:
corn [1] = experiment: Test A preemergence; format: in vivo, Zea mays; conditions: Zea mays, pre-emergence, 240 h; for Corn plant response rating (crop injury, 0 = no effect, 100 = complete kill) at 125 g/ha: 125 g ai/ha; for Corn plant response rating (crop injury, 0 = no effect, 100 = complete kill) at 500 g/ha: 500 g ai/ha
How it was run: (§1)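 Greenhouse pot test, 10 days. Compound (non-phytotoxic solvent, surfactant) sprayed on soil at seeding or on seedlings at one- to two-leaf stage. Visual injury rated 0–100 against untreated plants.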

foxtail, giant [2] = experiment: Test A preemergence; format: in vivo, Setaria faberi; conditions: Setaria faberi, pre-emergence, 240 h, read-out: Plant response rating, Foxtail, Giant; for pest or weed control at 125 g/ha: 125 g ai/ha; for pest or weed control at 500 g/ha: 500 g ai/ha
How it was run: as §1

oat, wild = experiment: Test A preemergence; format: in vivo, Avena fatua; conditions: Avena fatua, pre-emergence, 240 h, read-out: Plant response rating, Oat, Wild; for pest or weed control at 125 g/ha: 125 g ai/ha; for pest or weed control at 500 g/ha: 500 g ai/ha
How it was run: as §1

ragweed = experiment: Test A preemergence; format: in vivo, Ambrosia artemisiifolia; conditions: Ambrosia artemisiifolia, pre-emergence, 240 h, read-out: Plant response rating, Ragweed; for pest or weed control at 125 g/ha: 125 g ai/ha; for pest or weed control at 500 g/ha: 500 g ai/ha
How it was run: as §1

wheat [3] = experiment: Test A preemergence; format: in vivo, Triticum aestivum; conditions: Triticum aestivum, pre-emergence, 240 h, read-out: Plant response rating, Wheat; for plant injury at 125 g/ha: 125 g ai/ha; for plant injury at 500 g/ha: 500 g ai/ha
How it was run: as §1

corn [4] = experiment: Test A postemergence; format: in vivo, Zea mays; conditions: Zea mays, post-emergence, 240 h, postemergence, 10 days, 0 to 100 scale (0 no effect, 100 complete control); for plant injury at 125 g/ha: 125 g ai/ha, read-out: Corn plant response rating; for Corn plant response rating (crop injury, 0 = no effect, 100 = complete kill) at 500 g/ha: 500 g ai/ha, visual injury
How it was run: as §1

foxtail, giant [5] = experiment: Test A postemergence; format: in vivo, Setaria faberi; conditions: Setaria faberi, post-emergence, 240 h, postemergence, 10 days, 0 to 100 scale (0 no effect, 100 complete control); for pest or weed control at 125 g/ha: 125 g ai/ha, read-out: Foxtail, Giant plant response rating; for pest or weed control at 500 g/ha: 500 g ai/ha, visual injury, read-out: Plant response rating, Foxtail, Giant
How it was run: as §1

kochia = experiment: Test A postemergence; format: in vivo, Bassia scoparia; conditions: Bassia scoparia, post-emergence, 240 h, postemergence, 10 days, 0 to 100 scale (0 no effect, 100 complete control); for pest or weed control at 125 g/ha: 125 g ai/ha, read-out: Kochia plant response rating; for pest or weed control at 500 g/ha: 500 g ai/ha, visual injury, read-out: Plant response rating, Kochia
How it was run: as §1

ryegrass, Italian = experiment: Test A postemergence; format: in vivo, Lolium multiflorum; conditions: Lolium multiflorum, post-emergence, 240 h, postemergence, 10 days, 0 to 100 scale (0 no effect, 100 complete control); for pest or weed control at 125 g/ha: 125 g ai/ha, read-out: Ryegrass, Italian plant response rating; for pest or weed control at 500 g/ha: 500 g ai/ha, visual injury, read-out: Plant response rating, Ryegrass, Italian
How it was run: as §1

soybean = experiment: Test A postemergence; format: in vivo, Glycine max; conditions: Glycine max, post-emergence, 240 h, postemergence, 10 days, 0 to 100 scale (0 no effect, 100 complete control); for plant injury at 125 g/ha: 125 g ai/ha, read-out: Soybean plant response rating; for plant injury at 500 g/ha: 500 g ai/ha, visual injury, read-out: Plant response rating, Soybean
How it was run: as §1

wheat [6] = experiment: Test A postemergence; format: in vivo, Triticum aestivum; conditions: Triticum aestivum, post-emergence, 240 h, postemergence, 10 days, 0 to 100 scale (0 no effect, 100 complete control); for plant injury at 125 g/ha: 125 g ai/ha, read-out: Wheat plant response rating; for plant injury at 500 g/ha: 500 g ai/ha, visual injury, read-out: Plant response rating, Wheat
How it was run: as §1

galium = experiment: Test A postemergence; format: in vivo, Galium aparine; conditions: Galium, post-emergence, 240 h, postemergence, 10 days, 0 to 100 scale (0 no effect, 100 complete control); for pest or weed control at 125 g/ha: 125 g ai/ha, read-out: Galium plant response rating; for pest or weed control at 500 g/ha: 500 g ai/ha, visual injury, read-out: Plant response rating, Galium
How it was run: as §1

barnyardgrass = experiment: Test B flooded paddy test; format: in vivo, Echinochloa crus-galli; conditions: Echinochloa crus-galli, 312 h, 250 g ai/ha, Flood, 13 days, 0 to 100 scale (0 no effect, 100 complete control); read-out: Plant response rating, Barnyardgrass
How it was run: (§2)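 Percent weed or crop control, judged by eye on a 0–100 scale 13 days post-treatment, reflects compound added to a 3 cm flood maintained over 2-leaf plants in the greenhouse. Missing entries are marked with a dash.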

ducksalad = experiment: Test B flooded paddy test; format: in vivo, Heteranthera limosa; conditions: Heteranthera limosa, 312 h, 250 g ai/ha, Flood, 13 days, 0 to 100 scale (0 no effect, 100 complete control); read-out: Plant response rating, Ducksalad
How it was run: as §2

rice = experiment: Test B flooded paddy test; format: in vivo, Oryza sativa; conditions: Oryza sativa, 312 h; 250 g ai/ha, Flood, 13 days, 0 to 100 scale (0 no effect, 100 complete control); read-out: Plant response rating, Rice
How it was run: as §2

[7] = visual injury after 10 days, 0 to 100 scale, 0 is no effect, 100 is complete control
[8] = 0 to 100 scale (0 no effect, 100 complete control), 10 days

COCc1ncn(-c2cccc(C(=O)N3C[C@H](C)Oc4c(C)cccc43)c2)n1 [Compound 101, [(2S)-2,3-Dihydro-2,8-dimethyl-4H-1,4-benzoxazin-4-yl][3-[3-(methoxymethyl)-1H-1,2,4-triazol-1-yl]phenyl]methanone]
Corn plant response rating (crop injury, 0 = no effect, 100 = complete kill) at 125 g/ha (corn [1]; [7]): 0% | Corn plant response rating (crop injury, 0 = no effect, 100 = complete kill) at 500 g/ha (corn [1]; [8]): 60% | pest or weed control at 125 g/ha (foxtail, giant [2]; [7]): 90% | pest or weed control at 500 g/ha (foxtail, giant [2]; [8]): 100% | pest or weed control at 125 g/ha (oat, wild; [7]): 40% | pest or weed control at 500 g/ha (oat, wild; [8]): 90% | pest or weed control at 125 g/ha (ragweed; [7]): 0% | pest or weed control at 500 g/ha (ragweed; [8]): 20% | plant injury at 125 g/ha (wheat [3]; [7]): 0% | plant injury at 500 g/ha (wheat [3]; [8]): 50% | plant injury at 125 g/ha (corn [4]): 70% | Corn plant response rating (crop injury, 0 = no effect, 100 = complete kill) at 500 g/ha (corn [4]): 80% | pest or weed control at 125 g/ha (foxtail, giant [5]): 90% | pest or weed control at 500 g/ha (foxtail, giant [5]): 90% | pest or weed control at 125 g/ha (kochia): 70% | pest or weed control at 500 g/ha (kochia): 80% | pest or weed control at 125 g/ha (ryegrass, Italian): 60% | pest or weed control at 500 g/ha (ryegrass, Italian): 60% | plant injury at 125 g/ha (soybean): 70% | plant injury at 500 g/ha (soybean): 100% | plant injury at 125 g/ha (wheat [6]): 20% | plant injury at 500 g/ha (wheat [6]): 70% | pest or weed control at 125 g/ha (galium): 50% | pest or weed control at 500 g/ha (galium): 90% | pest or weed control at 250 g/ha (barnyardgrass): 15% | pest or weed control at 250 g/ha (ducksalad): 55% | plant injury at 250 g/ha (rice): 0%

Cc1cccc2c1O[C@@H](C)CN2C(=O)c1cccc(-n2cnc(C3COC3)n2)c1 [Compound 109, [(2S)-2,3-Dihydro-2,8-dimethyl-4H-1,4-benzoxazin-4-yl][3-[3-(3-oxetanyl)-1H-1,2,4-triazol-1-yl]phenyl]methanone]
Corn plant response rating (crop injury, 0 = no effect, 100 = complete kill) at 125 g/ha (corn [1]; [7]): 40% | Corn plant response rating (crop injury, 0 = no effect, 100 = complete kill) at 500 g/ha (corn [1]; [8]): 70% | pest or weed control at 125 g/ha (foxtail, giant [2]; [7]): 100% | pest or weed control at 500 g/ha (foxtail, giant [2]; [8]): 100% | pest or weed control at 125 g/ha (oat, wild; [7]): 50% | pest or weed control at 500 g/ha (oat, wild; [8]): 90% | pest or weed control at 125 g/ha (ragweed; [7]): 40% | pest or weed control at 500 g/ha (ragweed; [8]): 80% | plant injury at 125 g/ha (wheat [3]; [7]): 40% | plant injury at 500 g/ha (wheat [3]; [8]): 90% | plant injury at 125 g/ha (corn [4]): 60% | Corn plant response rating (crop injury, 0 = no effect, 100 = complete kill) at 500 g/ha (corn [4]): 90% | pest or weed control at 125 g/ha (foxtail, giant [5]): 70% | pest or weed control at 500 g/ha (foxtail, giant [5]): 90% | pest or weed control at 125 g/ha (kochia): 70% | pest or weed control at 500 g/ha (kochia): 90% | pest or weed control at 125 g/ha (ryegrass, Italian): 50% | pest or weed control at 500 g/ha (ryegrass, Italian): 100% | plant injury at 125 g/ha (soybean): 100% | plant injury at 500 g/ha (soybean): 100% | plant injury at 125 g/ha (wheat [6]): 40% | plant injury at 500 g/ha (wheat [6]): 90% | pest or weed control at 125 g/ha (galium): 70% | pest or weed control at 500 g/ha (galium): 100% | pest or weed control at 250 g/ha (barnyardgrass): 40% | pest or weed control at 250 g/ha (ducksalad): 75% | plant injury at 250 g/ha (rice): 0%

Cc1cccc2c1O[C@@H](C)CN2C(=O)c1cccc(-n2cnn(C)c2=O)c1 [Compound 117, 4-[3-[[(2S)-2,3-Dihydro-2,8-dimethyl-4H-1,4-benzoxazin-4-yl]carbonyl]phenyl]-2,4-dihydro-2-methyl-3H-1,2,4-triazol-3-one]
Corn plant response rating (crop injury, 0 = no effect, 100 = complete kill) at 125 g/ha (corn [1]; [7]): 0% | Corn plant response rating (crop injury, 0 = no effect, 100 = complete kill) at 500 g/ha (corn [1]; [7]): 10% | pest or weed control at 125 g/ha (foxtail, giant [2]; [7]): 60% | pest or weed control at 500 g/ha (foxtail, giant [2]; [7]): 90% | pest or weed control at 125 g/ha (oat, wild; [7]): 20% | pest or weed control at 500 g/ha (oat, wild; [7]): 70% | pest or weed control at 125 g/ha (ragweed; [7]): 0% | pest or weed control at 500 g/ha (ragweed; [7]): 40% | plant injury at 125 g/ha (wheat [3]; [7]): 0% | plant injury at 500 g/ha (wheat [3]; [7]): 20% | plant injury at 125 g/ha (corn [4]): 0% | Corn plant response rating (crop injury, 0 = no effect, 100 = complete kill) at 500 g/ha (corn [4]): 50% | pest or weed control at 125 g/ha (foxtail, giant [5]): 20% | pest or weed control at 500 g/ha (foxtail, giant [5]): 70% | pest or weed control at 125 g/ha (kochia): 30% | pest or weed control at 500 g/ha (kochia): 70% | pest or weed control at 125 g/ha (ryegrass, Italian): 30% | pest or weed control at 500 g/ha (ryegrass, Italian): 60% | plant injury at 125 g/ha (soybean): 60% | plant injury at 500 g/ha (soybean): 100% | plant injury at 125 g/ha (wheat [6]): 10% | plant injury at 500 g/ha (wheat [6]): 40% | pest or weed control at 125 g/ha (galium): 0% | pest or weed control at 500 g/ha (galium): 0% | pest or weed control at 250 g/ha (barnyardgrass): 0% | pest or weed control at 250 g/ha (ducksalad): 0% | plant injury at 250 g/ha (rice): 0%
